Marks after values point to notes of the source that are not given here.
Tests used:
[1] = system: SSS-stimulated trigeminal field response; experiment: In vivo electrophysiology: superior sagittal sinus (SSS)-stimulated trigeminal field response model of migraine; design: species or system rat
Excerpt: Male Long-Evans rats (Harlan, 250-400 g) were used in the experiments described in this example. Prior to testing, rats were allowed access to food and water ad libitum and were maintained on a 12:12-h light/dark cycle. Rats were group housed in an Association for Assessment and Accreditation of Laboratory Animal Care (AAALAC) accredited facility and cared for in strict compliance with all applicable regulations.
Rats were anesthetized with 1.2 g/kg i.p. urethane (#U-2500, Sigma Chemical Company, St. Louis, Mo.) and given supplemental urethane as needed. […]
Stimulated field responses were recorded in the trigeminal nucleus caudalis using Teflon coated stainless-steel microelectrodes (5 megaohms impedance, Frederick Haer, Brunswick, Me.) and amplified and filtered (0.1 Hz-10 kHz) using a differential amplifier (#IsoDAM8, World Precision Instruments, Sarasota, Fla.). […]
Three baseline measures (i.e., 100% of control), each consisting of 100 evoked trigeminal field potentials, were sampled prior to drug injection. […] Following injection of test substances, data were sampled for 1 hour, averaged into 5 minute bins (90 evoked potentials) and expressed as a percent change from average baseline values for the purposes of statistical analysis. Data were analyzed using repeated measures analyses of variance comparing vehicle and drug effects. […]

[2] = biological target: cloned mouse KCNQ2 (mKCNQ2) (Mus musculus, UniProt Q9Z351); experiment: KCNQ oocyte two-electrode voltage clamp, KCNQ2-mediated outward current; type: cell-based; conditions: expressed as percent increase over KCNQ current in controls, Xenopus oocytes
Chain of cloned mouse KCNQ2 (mKCNQ2) (Q9Z351 whole entry): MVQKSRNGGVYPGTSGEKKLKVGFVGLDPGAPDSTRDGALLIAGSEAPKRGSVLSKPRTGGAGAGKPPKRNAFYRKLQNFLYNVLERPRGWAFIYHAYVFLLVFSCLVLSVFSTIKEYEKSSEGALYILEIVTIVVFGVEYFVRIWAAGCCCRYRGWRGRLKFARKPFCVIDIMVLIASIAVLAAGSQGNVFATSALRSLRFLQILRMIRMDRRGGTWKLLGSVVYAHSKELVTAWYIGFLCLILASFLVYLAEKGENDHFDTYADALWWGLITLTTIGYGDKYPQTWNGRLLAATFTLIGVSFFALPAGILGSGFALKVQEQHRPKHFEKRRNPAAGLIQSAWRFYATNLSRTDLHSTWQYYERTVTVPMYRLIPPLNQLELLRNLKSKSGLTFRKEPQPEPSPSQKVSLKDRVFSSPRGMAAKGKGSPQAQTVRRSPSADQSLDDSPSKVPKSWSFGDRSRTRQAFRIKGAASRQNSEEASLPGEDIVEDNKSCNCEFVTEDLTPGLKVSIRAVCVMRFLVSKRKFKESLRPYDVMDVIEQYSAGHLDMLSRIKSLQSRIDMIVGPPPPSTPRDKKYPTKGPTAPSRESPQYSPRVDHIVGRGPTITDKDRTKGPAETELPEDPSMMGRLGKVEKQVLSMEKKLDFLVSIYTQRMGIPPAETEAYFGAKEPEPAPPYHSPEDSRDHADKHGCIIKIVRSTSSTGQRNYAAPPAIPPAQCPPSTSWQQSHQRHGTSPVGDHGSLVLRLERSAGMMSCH
Method: The ability of compounds described in the present invention to open KCNQ channels and increase whole-cell outward (K^+) KCNQ-mediated currents was assessed under voltage-clamp conditions by determining their ability to increase cloned mouse KCNQ2 (mKCNQ2)-mediated, heteromultimeric KCNQ2/3 (KCNQ2/3)-mediated, and human KCNQ5 (hKCNQ5)-mediated outward currents heterologously expressed in Xenopus oocytes. Oocytes were prepared and injected using standard techniques; each oocyte was injected with approximately 50 nl of mKCNQ2, or hKCNQ5 cRNA. In the case of mKCNQ2/3 heteromultimeric channel expression, equal amounts (25-50 nL) of each cRNA were co-injected. […] Following injection, oocytes were maintained at 17° C. in ND96 medium consisting of (in mM): NaCl, 90; KCl, 1.0; CaCl2, 1.0; MgCl2, 1.0; HEPES, 5.0; pH 7.5. Horse serum (5%) and penicillin/streptomycin (5%) were added to the incubation medium. Recording commenced 2-6 days following mRNA injection. Prior to the start of an experiment oocytes were placed in a recording chamber and incubated in Modified Barth's Solution (MBS) consisting of (in mM): NaCl, 88; NaHCO3, 2.4; KCl, 1.0; HEPES, 10; MgSO4, 0.82; Ca(NO3)2, 0.33; CaCl2, 0.41; pH 7.5.
Oocytes were impaled with electrodes (1-2 MΩ) and standard 2-electrode voltage clamp techniques were employed to record whole-cell membrane currents. Recordings were accomplished using standard two-electrode voltage clamp techniques [Stuhmer et al., Methods in Enzymology, Vol. 207: 319-339 (1992)]. Voltage-clamp protocols typically consisted of a series of voltage steps 1-5 sec duration, in +10 mV steps from a holding potential of −90 mV to a maximal potential of +40 mV; records were digitized at 5 kHz and stored on a computer using pclamp data acquisition and analysis software (Axon Instruments). […]

Row | KCNQ2 Current ([2]; at 20 μM) | SMILES | other results
1 | – | O=C(NCc1ccc(C(F)(F)F)cc1)c1cnc(N2CCCC2)nc1C(F)(F)F [Example 19] | decrease in field potential compared with vehicle ([1]; 1 mg/kg i.v., 60 minutes following i.v. injection, rat SSS model of migraine, p=0.005): 25.2%; reduction in the SSS-stimulated trigeminal field response ([1]; i.v., rat, overall ANOVA p<0.001): dose-dependent reduction; KCNQ2 Current ([2]; at 5 μM): ++** (++ = 151-200%)
2 | ++ (++ = 151-200%) | O=C(NCc1ccc(C(F)(F)F)cc1)c1cnc(NCc2ccccc2)nc1N1CCCC1 [Example 37, 2-(Phenylmethylamino)-4-(pyrrolidin-1-yl)-N-[[4-(trifluoromethyl)phenyl]methyl]pyrimidine-5-carboxamide] | –
3 | +++ (+++ = >200%) | CCCc1nc(N2CCCC2)ncc1C(=O)NCc1ccc(F)cc1 [Example 9, 4-(1-Propyl)-2-(pyrrolidin-1-yl)-N-[(4-fluorophenyl)methyl]pyrimidine-5-carboxamide] | –
4 | +++ (+++ = >200%) | O=C(NCc1ccc(F)cc1)c1cnc(N2CCCC2)nc1C1CCCCC1 [Example 4, 4-Cyclohexyl-2-(pyrrolidin-1-yl)-N-[(4-fluorophenyl)methyl]pyrimidine-5-carboxamide] | –
5 | + (+ = 125-150%) | O=C(NCc1ccc(C(F)(F)F)cc1)c1cnc(NCc2ccc(Cl)cc2)nc1N1CCCC1 [Example 39, 2-[(4-Chlorophenyl)methylamino]-4-(pyrrolidin-1-yl)-N-[[4-(trifluoromethyl)phenyl]methyl]-pyrimidine-5-carboxamide] | –

Row | SMILES | KCNQ2 Current ([2]; at 20 μM) | other results
6 | O=C(NCc1ccc(F)cc1)c1cnc(N2CCOCC2)nc1C1CCCCC1 [Example 1, 4-Cyclohexyl-2-(morpholin-1-yl)-N-[(4-fluorophenyl)methyl]pyrimidine-5-carboxamide] | +++ (+++ = >200%) | –

Reference: patent US20020183335A1, “2, 4-disubstituted pyrimidine-5-carboxamide derivatives as KCNQ potassium channel modulators” (priority 2001, published 2002)
